{"source": "paper PMC7855594", "about": "(Cell chemical biology, 2020)", "key": {"USP7 [1]": {"molecular_target": "T1, USP7 (Homo sapiens, UniProt Q93009)", "T1 sequence (Q93009 whole entry)": "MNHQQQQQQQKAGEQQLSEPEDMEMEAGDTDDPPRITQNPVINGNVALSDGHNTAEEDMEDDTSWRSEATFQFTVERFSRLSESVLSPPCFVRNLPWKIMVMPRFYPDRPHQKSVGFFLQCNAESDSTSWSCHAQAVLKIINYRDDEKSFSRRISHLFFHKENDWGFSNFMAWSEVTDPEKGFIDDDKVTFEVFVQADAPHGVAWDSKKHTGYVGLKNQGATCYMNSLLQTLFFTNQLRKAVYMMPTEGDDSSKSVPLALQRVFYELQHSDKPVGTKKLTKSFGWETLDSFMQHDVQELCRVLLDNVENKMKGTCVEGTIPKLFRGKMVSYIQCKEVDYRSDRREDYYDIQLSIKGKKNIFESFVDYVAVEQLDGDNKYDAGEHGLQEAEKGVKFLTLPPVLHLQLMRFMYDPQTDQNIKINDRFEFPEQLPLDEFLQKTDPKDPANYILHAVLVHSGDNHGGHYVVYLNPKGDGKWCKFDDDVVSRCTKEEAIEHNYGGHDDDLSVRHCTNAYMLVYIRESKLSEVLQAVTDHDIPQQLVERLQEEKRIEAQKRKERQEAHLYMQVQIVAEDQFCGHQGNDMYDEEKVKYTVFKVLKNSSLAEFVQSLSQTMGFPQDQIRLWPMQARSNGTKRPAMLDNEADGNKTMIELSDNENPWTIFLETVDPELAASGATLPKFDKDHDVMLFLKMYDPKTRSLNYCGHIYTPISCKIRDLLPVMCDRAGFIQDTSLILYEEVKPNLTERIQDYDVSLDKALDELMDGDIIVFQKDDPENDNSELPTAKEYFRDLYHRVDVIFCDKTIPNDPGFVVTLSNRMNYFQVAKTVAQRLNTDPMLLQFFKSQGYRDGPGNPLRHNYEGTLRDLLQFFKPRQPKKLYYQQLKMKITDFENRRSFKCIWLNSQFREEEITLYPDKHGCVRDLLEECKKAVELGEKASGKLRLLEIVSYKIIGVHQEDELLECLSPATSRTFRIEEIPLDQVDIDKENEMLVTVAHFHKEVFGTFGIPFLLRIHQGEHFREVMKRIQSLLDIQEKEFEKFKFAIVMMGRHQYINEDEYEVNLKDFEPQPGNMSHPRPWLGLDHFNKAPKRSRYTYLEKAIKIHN", "type": "biochemical"}, "USP7 [2]": {"molecular_target": "T1, USP7", "type": "biochemical", "remark": "listed apart in the source"}, "USP7 [3]": {"molecular_target": "T1, USP7", "assay": "purified enzyme biochemical assay", "settings": "cited from earlier work"}}, "data": [{"smiles": "CN1CCN(CCC(=O)Nc2ccc3c(=O)n(CC4(O)CCN(C(=O)[C@@H](CCCNC(=O)c5ccc6c(Cl)c7c(nc6c5)CCCC7)Cc5ccccc5)CC4)cnc3c2)CC1", "note": "[XL177A]", "values": [{"measurement": "% inhibition at 1 μM", "setting": "USP7 [1]", "result": 100}]}, {"smiles": "C[C@H](CC(=O)N1CCC(O)(Cn2cnc3cc(NC(=O)CCN4CCN(C)CC4)ccc3c2=O)CC1)c1ccccc1", "note": "[XL188]", "values": [{"measurement": "% inhibition at 10 μM", "setting": "USP7 [2]", "result": 100}]}, {"smiles": "C[C@@H](CC(=O)N1CCC(O)(Cn2cnc3cc(NC(=O)CCN4CCN(C)CC4)ccc3c2=O)CC1)c1ccccc1", "note": "[XL203C]", "values": [{"measurement": "IC50", "setting": "USP7 [3]", "result": 7, "unit": "µM"}]}]}
